Laboratory results reported in patent publication US10933132B2, “Combination of epigenetic factors and bispecific compounds targeting CD33 and CD3 in the treatment of myeloid leukemia” (AMGEN RESEARCH (MUNICH) GMBH, priority 2013, dated 2021).

Key:
KG-1a cells [1] = experiment: CD33 expression by flow cytometry (PE anti-CD33 P67.6) after pretreatment with epigenetic drug; type: cell-based, human; details: 3-day pretreatment, relative to untreated
From the text: CD33 expression on parental AML cells and cell lines was quantified by flow cytometry using a phycoerythrin (PE)-conjugated anti-CD33 antibody (clone P67.6; BD Biosciences, San Jose, Calif., USA) (see Walter et al. Blood. 2005; 105(3):1295-1302).

AML target cells = details: co-therapy of lintuzumab and 5-azacytidine; cited from earlier work
AML cells or macrophages = details: incubation of AML cells or macrophages; cited from earlier work
HL-60 AML cells = experiment: Hydroxyurea up-regulation of CD33 on AML cell lines, flow cytometry; type: cell-based; details: for CD33 MFI Ratio: day 3, untreated 134.9
Experimental: (§1) AML cell lines HL-60, PL21, OCI-AML3, KG1a and MV4-11 were seeded in 24-well plates at 1×10^6 cells/ml on day 0. Cells were either left untreated (UT) or treated with 10 μM (H1) or 100 μM (H2) hydroxyurea (Sigma) for three consecutive days (day 0, day 1 and day 2). On day 3, cells were harvested, counted and analyzed for changes in CD33 surface expression level by flow cytometry.

PL21 AML cells = experiment: as above; type: cell-based; details: for CD33 MFI Ratio: day 3, untreated 166.9
Experimental: as §1

primary AML cells = experiment: Hydroxyurea up-regulation of CD33 on primary AML cells, flow cytometry; type: cell-based
Experimental: Three primary AML samples were seeded in a 12-well plates at 1×10^6 cells/ml, as previously described (Krupka, Subklewe et. al, Blood 2014). Cells were either left untreated (UT) or treated with 10 μM (H1) or 100 μM (H2) hydroxyurea (Sigma) for three consecutive days (day 0, day 1 and day 2). On day 1-day 3, cells were harvested, counted and analyzed for changes in CD33 surface expression by flow cytometry.

OCI-AML3 cells = experiment: AMG 330-induced cytotoxicity with healthy donor T-cells (DAPI, 48 h) after epigenetic drug pretreatment; type: cell-based, human; details: 3-day pretreatment, relative to untreated cells
Experimental: Parental OCI-AML3 and KG-1a cells were either left untreated or pretreated with panobinostat for 72 hours. […] 48 hours later, cell counts were determined and cytotoxicity was assessed with DAPI staining to quantify drug-specific cytotoxicity. Results are shown as mean±SEM from 3 independent experiments performed in duplicate wells using a single healthy donor as source for exogenous T-cells.
(§2) For the experimental settings mononuclear cells were collected from healthy adult volunteers via leukapheresis, and T cells enriched through magnetic cell sorting (Pan T Cell Isolation Kit II; Miltenyi Biotec, Auburn, Calif.). Thawed cell aliquots were labeled with 3 μM CellVue Burgundy (eBioscience, San Diego, Calif.) according to the manufacturer's instructions.
(§3) For the quantification of compound induces cytotoxicity AML cells were taken during exponential growth and incubated at 37° C. […] After 48 hours, cell numbers and drug-induced cytotoxicity, using 4′,6-diamidino-2-phenylindole (DAPI) to detect non-viable cells, were determined using a LSRII flow cytometer (BD Biosciences, San Jose, Calif.) and analyzed with FlowJo (Tree Star, Ashland, Oreg.). AML cells were identified by forward/side scatter properties and negativity for CellVue Burgundy dye.

KG-1a cells [2] = experiment: as above; details: 3-day pretreatment, relative to untreated cells
Experimental: Parental OCI-AML3 and KG-1a cells were either left untreated or pretreated with panobinostat for 72 hours. […] 48 hours later, cell counts were determined and cytotoxicity was assessed with DAPI staining to quantify drug-specific cytotoxicity.
Parental KG-1a cells were either left untreated or pretreated with azacitidine for 72 hours. […] 48 hours later, cell counts were determined and cytotoxicity was assessed with DAPI staining to quantify drug-specific cytotoxicity.
as §2, §3

[3] = target: T1, CD19 B-cell surface antigen and CD3 (Homo sapiens, UniProt P07766+P15391); details: patients with B-cell lymphomas and B precursor ALL; cited from earlier work
T1 construct: host or cells: patients (endogenous CD19 on B cells, CD3 epsilon on T cells)

CD33 = target: T2, CD33 (Homo sapiens, UniProt P20138); details: cited from earlier work
T2 construct: myeloid differentiation antigen found on AML blasts in most patients; host or cells: AML patients (endogenous CD33 on blasts)
T2 sequence (P20138 18-364): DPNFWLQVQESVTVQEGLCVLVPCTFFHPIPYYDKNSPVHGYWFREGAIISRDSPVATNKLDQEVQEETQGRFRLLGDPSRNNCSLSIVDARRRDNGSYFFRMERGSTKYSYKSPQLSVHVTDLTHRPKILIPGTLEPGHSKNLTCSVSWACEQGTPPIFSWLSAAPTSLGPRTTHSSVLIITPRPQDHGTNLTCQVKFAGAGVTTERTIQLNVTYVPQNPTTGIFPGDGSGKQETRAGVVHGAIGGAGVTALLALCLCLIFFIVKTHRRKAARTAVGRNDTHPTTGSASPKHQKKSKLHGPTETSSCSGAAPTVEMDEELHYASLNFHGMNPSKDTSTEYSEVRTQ

For `Nc1ncn([C@@H]2O[C@H](CO)[C@@H](O)[C@H]2O)c(=O)n1` [azacitidine, 5-azacytidine], the CD33 expression (KG-1a cells [1]) is given as “significant increase”, the “lintuzumab-mediated ADCC” value (AML target cells) is given as “improved” and the CD33 expression (AML cells or macrophages) is given as “did not affect”.

In the case of `NC(=O)NO` [hydroxyurea, Hydroxyurea], the “CD33 MFI Ratio” value (HL-60 AML cells; HL-60, H1 = 10 μM hydroxyurea on three consecutive days) is reported as 171.3, the “CD33 MFI Ratio” value (HL-60 AML cells; HL-60, H2 = 100 μM hydroxyurea on three consecutive days) is reported as 210.0 and the “upregulation of CD33 (in words)” value (HL-60 AML cells; HL-60 AML cells, 10 and 100 μM) is reported as “upregulation of CD33”. For the same molecule, the “CD33 MFI Ratio” value (PL21 AML cells; PL21, H1 = 10 μM hydroxyurea on three consecutive days) was 177.9, the “CD33 MFI Ratio” value (PL21 AML cells; PL21, H2 = 100 μM hydroxyurea on three consecutive days) was 191.8 and the “upregulation of CD33 (in words)” value (PL21 AML cells; PL21 AML cells, 10 and 100 μM) was “upregulation of CD33”. The “CD33 MFI Ratio” value (primary AML cells; primary AML cells patient 2, day 1, H1 = 10 μM hydroxyurea, untreated 3.7) was 4.2, the “CD33 MFI Ratio” value (primary AML cells; primary AML cells patient 2, day 1, H2 = 100 μM hydroxyurea, untreated 3.7) was 4.5 and the “CD33 MFI Ratio” value (primary AML cells; primary AML cells patient 2, day 2, H1 = 10 μM hydroxyurea, untreated 4.8) was 4.2. For the same molecule, the “CD33 MFI Ratio” value (primary AML cells; primary AML cells patient 2, day 2, H2 = 100 μM hydroxyurea, untreated 4.8) was 5.1 and the “up-regulation of CD33 in patient samples (in words)” value (primary AML cells; three primary AML samples, day 1 and day 2 of incubation) was “up-regulation of CD33 in 1 of 3 patient samples”.

In the case of `Cc1[nH]c2ccccc2c1CCNCc1ccc(/C=C/C(=O)NO)cc1` [panobinostat], the “sensitivity to AMG 330-induced cytotoxicity” value (OCI-AML3 cells) is reported as “modestly more sensitive” and the “sensitivity to AMG 330-induced cytotoxicity” value (KG-1a cells [2]) is reported as “modestly more sensitive”.

For “blinatumomab: bispecific antibody directed at CD19 and the CD3 component of the T-cell receptor complex”, the therapeutic efficacy [3] is listed as “therapeutic efficacy was shown”.

In the case of “lintuzumab: intact humanized CD33 antibody”, the survival benefit (CD33; phase III trial, combined with a triple chemotherapy regimen) is given as “no survival benefit” and the clinical response (CD33; single-agent phase I and II trial) is given as “complete remission in individual patients”.
